The test concerns E. multilocularis metacestodes. The experiment in a line: PGI assay: phosphoglucose isomerase release from damaged metacestodes. The format is cell-based, Echinococcus multilocularis. The note with it: 10 μM, 5 days, single wells, relative to DB1127 (10 μM). An outline of the steps: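 E. multilocularis metacestode vesicles (strain H95, grown in BALB/c mice, 2–4 mm diameter) were exposed in vitro to compounds for 5 days. Damage was read as phosphoglucose isomerase released into the medium. Initial screening used 10 μM in single wells, with 0.1% DMSO as negative control. EC50 values were derived from this read-out.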
In the case of `Cc1c(C)n(CC(O)CNC2CCCCC2C)c2ccccc12` (centres unmarked) [MMV665806], the “PGI (% of DB1127 at 10 uM)” value was found to be 5.77%.
Take `CCN(CC)CCCNc1nc(-c2ccc(Cl)cc2)nc2ccccc12` [MMV665961]: the “PGI (% of DB1127 at 10 uM)” value is given as -34.32%.
In the case of `CCCCOc1ccc(C(=O)Nc2cc(C)on2)cc1` [MMV007906] it was -15.33%; in that of `COc1ccc(CN2CCN(Cc3ccccc3)CC2)c(O)c1` [MMV665944], -7.26%.
`CCOC(=O)c1c[nH]c2c(CC)cccc2c1=O` [MMV498479]: the “PGI (% of DB1127 at 10 uM)” value is reported as -7.93%.
For the compound `Cc1ccc2nc(C)cc(Nc3cccc(C(F)(F)F)c3)c2c1.Cl` [MMV000326], the “PGI (% of DB1127 at 10 uM)” value came out at 7.52%.
In the case of `O=C(CCc1ccccc1)c1ccccc1OCC(O)CN1CCCCC1` (centres unmarked) [MMV009015], the “PGI (% of DB1127 at 10 uM)” value came out at 4.79%.
Turning to `Cc1ccc(-c2nc3ccccc3o2)cc1NCc1cc(Cc2ccccc2)ccc1O` [MMV020912], the “PGI (% of DB1127 at 10 uM)” value is reported as -2.94%.
`CCCC(c1nnnn1C1CCCCC1)N1CCN(C(=O)c2ccco2)CC1.Cl` (centres unmarked) [MMV666093]: the “PGI (% of DB1127 at 10 uM)” value is listed as -0.54%.
On to `CCC(C)NCC(O)(c1ccc(Cl)cc1)c1ccc(Cl)cc1` (centres unmarked) [MMV665928], for which the “PGI (% of DB1127 at 10 uM)” value is on record as -109.93%.
In the case of `CCOC(=O)C1=C(c2ccccc2)N=c2sc(=Cc3cc(C)n(-c4ccc(F)cc4)c3C)c(=O)n2C1c1cccc(OC)c1OC` (centres unmarked) [MMV666601], the “PGI (% of DB1127 at 10 uM)” value is reported as -52.06%.
`Cc1cc(Nc2ccc(C)c(Cl)c2)n2nc(C(F)(F)F)nc2n1` [MMV665874]: the “PGI (% of DB1127 at 10 uM)” value is recorded as -25.13%.
On to `COc1ccccc1C(=O)ON=C(N)Cc1cccc2ccccc12` [MMV666686], for which the “PGI (% of DB1127 at 10 uM)” value was 1.82%.
Regarding `O=C(NNc1cc(N2CCCC2)nc(N2CCCC2)n1)c1ccccc1` [MMV396770], the “PGI (% of DB1127 at 10 uM)” value is on record as -1.95%.
For the compound `COc1ccccc1NC1=C(N2CCCCC2)C(=O)c2ccccc2C1=O` [MMV085203], the “PGI (% of DB1127 at 10 uM)” value worked out at 31.65%.
Turning to `COc1ccccc1N1CCN(C(CNS(=O)(=O)c2ccc(Cl)cc2)c2cccnc2)CC1` (centres unmarked) [MMV665914], the “PGI (% of DB1127 at 10 uM)” value is recorded as 1.92%.
`CCOc1ccc(-c2nc(NC(=O)c3cccc(S(C)(=O)=O)c3)sc2C)cc1` [MMV665913]: the “PGI (% of DB1127 at 10 uM)” value is on record as -25.30%.
As for `O=C1CC(O)(C(F)(F)C(F)(F)F)Oc2ccccc21` (centres unmarked) [MMV000972], the figure is 141.59%; as for `Cc1cc(C=C2SC(=Nc3ccccc3)N(C3CCCC3)C2=O)c(C)n1-c1ccc(Cl)cc1` [MMV666688], -35.93%; as for `COc1ccc(C(=O)C2CC2c2ccc(Cl)cc2)cc1` (centres unmarked) [MMV665924], -13.71%.
In the case of `COc1ccc(-n2ccnc2SCC(=O)Nc2cc(C)ccc2C)c(OC)c1` [MMV019258], the “PGI (% of DB1127 at 10 uM)” value is reported as -33.26%.
In the case of `O=C(O)C(=O)O.Oc1ccccc1CN1CCN(C(c2ccccc2)c2ccccc2)CC1` [MMV011795] it was -19.79%.
Turning to `CCOC(=O)C1(Cc2ccccc2)CCN(Cc2cccc(OC)c2O)CC1` [MMV666109], the “PGI (% of DB1127 at 10 uM)” value is given as -8.56%.
On to `COc1cccc(C(=O)NC(c2ccc(C)cc2)c2cc(Cl)c3cccnc3c2O)c1` (centres unmarked) [MMV665969], for which the “PGI (% of DB1127 at 10 uM)” value is reported as -25.94%.
On to `CN(C)CCCNCc1ccc(-c2ccc(F)c(Cl)c2)o1.Cl` [MMV020505], for which the “PGI (% of DB1127 at 10 uM)” value is recorded as -8.77%.
With `CCOC(=O)c1cnc2ccc(OC)cc2c1NCc1ccccc1` [MMV665813], the “PGI (% of DB1127 at 10 uM)” value is -12.77%.
For the compound `Cc1ccnc(NC(c2cccc(OCc3ccccc3)c2)c2ccc3cccnc3c2O)c1` (centres unmarked) [MMV000720], the “PGI (% of DB1127 at 10 uM)” value was -5.36%.
As for `CCOc1cc2c(cc1OCC)C(c1cc(OC)c(O)cc1Cl)NCC2` (centres unmarked) [MMV008956], the figure is -28.84%; as for `COc1ccc(OC)c(C2C3=C(CC(C)(C)CC3=O)N(c3ccc(Cl)c(Cl)c3)C3=C2C(=O)CC(C)(C)C3)c1` [MMV007208], -12.95%; as for `CCc1ccc(Nc2cc(C)nc3nc(C)nn23)cc1` [MMV007374], 12.73%.
As to `Cc1ccc(Cl)cc1N1CCN(CCCNC(=O)C2CCN(c3nc4ccccc4[nH]3)CC2)CC1` [MMV019746], the “PGI (% of DB1127 at 10 uM)” value is -24.98%.
For the compound `COc1cccc(-c2nn(C)c3sc(C(=O)NCCN4CCN(c5ccccc5F)CC4)cc23)c1` [MMV019064], the “PGI (% of DB1127 at 10 uM)” value is -17.87%.
For `COC(=O)c1ccc(Cl)c2c1C1C=CCC1C(c1cccc3ccccc13)N2` (centres unmarked) [MMV667489], the “PGI (% of DB1127 at 10 uM)” value is listed as 2.16%.
Consider `CCOc1c(Cl)cc(CNCC(O)c2ccccc2)cc1OC` (centres unmarked) [MMV396632], for which the “PGI (% of DB1127 at 10 uM)” value stood at 5.30%.
For the compound `Cc1cccc(N2C(=O)C3C(C2=O)C2(c4ccccc4)C(=O)C3(c3ccccc3)C(c3ccc4c(c3)OCO4)=C2c2ccc3c(c2)OCO3)c1` (centres unmarked) [MMV007228], the “PGI (% of DB1127 at 10 uM)” value is reported as 7.95%.
Take `O=C(NCC1Cc2cccc(-c3ccncc3)c2O1)c1csc2c1CCCC2` (centres unmarked) [MMV665954]: the “PGI (% of DB1127 at 10 uM)” value is reported as -10.62%.
On to `c1ccc2c(NCCc3c[nH]c4ccccc34)c3ccccc3nc2c1` [MMV006513], for which the “PGI (% of DB1127 at 10 uM)” value worked out at 41.08%.
Regarding `COc1ccccc1CNC(=O)CCn1c(=O)[nH]c2ccsc2c1=O` [MMV019066], the “PGI (% of DB1127 at 10 uM)” value is listed as -44.92%.
Consider `N=c1n(CCN2CCCCC2)c2ccccc2n1CC(=O)c1ccc(Cl)c(Cl)c1` [MMV396723], for which the “PGI (% of DB1127 at 10 uM)” value amounted to 22.11%.
As for `O=C(NC(c1ccccc1)c1ccc2cccnc2c1O)c1ccccc1` (centres unmarked) [MMV666080], the figure is -67.16%.
With `COc1ccc(-c2cc(=O)oc3c4c(ccc23)OCN(Cc2ccc(F)cc2)C4)cc1` [MMV000604], the “PGI (% of DB1127 at 10 uM)” value was determined as 3.81%.
Regarding `Br.CCn1c2c(c(=N)c3c1CCC3)CCCC2` [MMV000340], the “PGI (% of DB1127 at 10 uM)” value stood at 2.86%.
In the case of `c1ccc2cc3c(Nc4ccc(N5CCOCC5)cc4)ccnc3cc2c1` [MMV006861], the “PGI (% of DB1127 at 10 uM)” value was -26.86%.
In the case of `COc1cccc(NC(=O)Cn2c(C)c(C#N)c3ccccc32)c1` [MMV665826] it was -17.93%; in that of `COc1ccc(CCNC(=O)c2cc(S(=O)(=O)N3CC(C)CC(C)C3)ccc2Sc2ccc(F)cc2)cc1OC` (centres unmarked) [MMV007557], 14.98%; in that of `CCN(CC)CCn1c(=N)n(CC(O)c2ccc(Cl)c(Cl)c2)c2ccccc21.Cl` (centres unmarked) [MMV000248], -18.11%.
Turning to `COc1ccc(Nc2cc(C)nc(NCc3ccccc3)n2)cc1` [MMV006825], the “PGI (% of DB1127 at 10 uM)” value is 17.48%.
As to `COc1ccc(C2NCCc3c2[nH]c2ccccc32)cc1CN1CCN(c2ccc(F)cc2)CC1.Cl` (centres unmarked) [MMV019690], the “PGI (% of DB1127 at 10 uM)” value came to 51.28%.
With `COCCN(C(=O)Cc1cccs1)C(C(=O)NCc1ccc(OC)cc1)c1ccc(C(C)C)cc1` (centres unmarked) [MMV666105], the “PGI (% of DB1127 at 10 uM)” value was -124.48%.
In the case of `CN1CCN(c2nc(Nc3ccc(O)cc3)nc3ccccc23)CC1.Cl` [MMV000986], the “PGI (% of DB1127 at 10 uM)” value was -4.90%.
In the case of `CCOc1cc2c(cc1OCC)C(c1cc(Cl)ccc1O)NCC2` (centres unmarked) [MMV000478] it was 32.45%; in that of `CCOC(=O)c1c(NC(=O)c2ccccc2)sc2c(O)c(CN(CC)CC)ccc12` [MMV665831], -16.80%.
As for `COc1ccc2nc(C)cc(Nc3ccc(Cl)cc3)c2c1` [MMV007875], the figure is -32.27%.

These data come from publication PMC4788259 (PLoS Neglected Tropical Diseases, 2016).
